Like-named read-outs stand apart in the source and are kept apart here.
Tests used:
[1] = system: Salmonella dublin strain M738; experiment: Synergy in experimental bovine salmonellosis, five repeated daily subcutaneous injections (Example 2); type: in vivo, calves; conditions: for Mortality: s.c., five days
From the text: In planning the investigation of possible synergy between Compound A and sulphadimidine (SDD), it was decided that seven treatment groups (including an untreated control group) of eight calves each would be necessary, but because of the impossibility of housing this required total number of calves (56) at one time in the available isolation accommodation, it was planned to carry out two duplicate experiments each using seven groups of four calves.
• 1) "Sodium Sulfamethazine Injectable Solution 25%" - Cyanamid. This commercial preparation contained 250 mg/ml of sodium SDD, equivalent to 232 mg/ml of SDD. • 2) Aqueous solution of SDD, 100 mg/ml in dilute NaOH. • 3) Aqueous solution of Compound A, 20 mg/ml as the hydrochloride.
On the day of infection, Day 0, each calf received an oral dose of 50 ml of a log-phase culture of Salmonella dublin strain M738 diluted to contain an estimated 10¹⁰ organisms, using the published technique (White et al 1981a). A viable count on the inoculum was carried out.
On the basis of Day 0 (am) bodyweights the calves were randomly allocated into 7 groups of 4.
Using Day 0 bodyweights, 3 calves of identical weights to the day 0 weights of the 3 eliminated calves were allocated to the appropriate groups, and the remaining […] were randomly allocated to the 7 groups as above.
Administration of compounds in all cases was by subcutaneous injection, using different sides of the animal for Compound A and SDD when both were given in groups 4, 5 and 6. The first of five consecutive daily injections was given 43 hours after […], the other following at 24 hour intervals.

S. dublin strain M738 = experiment: MIC by surface growth inhibition method, checkerboard two-fold dilution series; type: cell-based; conditions: for MIC: Salmonella enterica, M738
Method: Estimation of the minimum inhibitory concentrations (MICs) of Compound A and SDD, alone and together, was carried out by a surface growth inhibition method, using a "checkerboard" two-fold dilution series, with Compound A and SDD ranges of […] and 256 to 1µg/ml respectively. Thus, including the control plates, a total of 100 different combinations were used. Dilutions were made in Oxoid Isosensitest Agar with plate inoculation by an automatic inoculator using a 2µl inoculum yielding semi-confluent growth over a disc approx. 7 mm diameter. End points were judged to be the lowest concentrations completely or almost completely inhibiting growth.

a range of organisms = conditions: against a range of organisms; cited from earlier work
S.dublin = experiment: Treatment of acute salmonellosis in calves, compound administered alone; type: in vivo; conditions: administered alone at dosages of up to 6 mg/kg
[2] = Serum concentrations in infected calves (Bratton-Marshall method for sulphonamide, bio-assay for Compound A); type: in vivo
Method: Blood samples for assay of sulphonamide by the Bratton-Marshall method and for Compound A by bio-assay were collected before and 24 hours after the first injection, 2, 5 and 24 hours after the second injection, 24 hours after the fourth injection and 2, 5 and 24 hours after the fifth injection.

[3] = cattle older than about six weeks; cited from earlier work

Structure (SMILES): Cc1cc(Cc2cnc(N)nc2N)c2cccnc2c1N(C)C [Compound A, 2,4-diamino-5-(8-dimethylamino-7-methyl-5-quinolylmethyl) pyrimidine]
- Mortality ([1]; Group 3: Compound A alone 6 mg/kg daily): 5 out of 8
- therapeutic effect ([1]; Group 3: Compound A alone at 6 mg/kg daily): ineffective
- growth at 24 hours (S. dublin strain M738; Compound A 0.002 µg/ml, SDD 0 µg/ml): +
- growth at 24 hours (S. dublin strain M738; Compound A 0.004 µg/ml, SDD 0 µg/ml): +
- growth at 24 hours (S. dublin strain M738; Compound A 0.008 µg/ml, SDD 0 µg/ml): +
- growth at 24 hours (S. dublin strain M738; Compound A 0.016 µg/ml, SDD 0 µg/ml): +
- growth at 24 hours (S. dublin strain M738; Compound A 0.032 µg/ml, SDD 0 µg/ml): +
- growth at 24 hours (S. dublin strain M738; Compound A 0.064 µg/ml, SDD 0 µg/ml): +
- growth at 24 hours (S. dublin strain M738; Compound A 0.128 µg/ml, SDD 0 µg/ml): +
- growth at 24 hours (S. dublin strain M738; Compound A 0.256 µg/ml, SDD 0 µg/ml): -
- growth at 24 hours (S. dublin strain M738; Compound A 0.512 µg/ml, SDD 0 µg/ml): -
- MIC (S. dublin strain M738; each substance alone, Oxoid Isosensitest Agar, read-out: MIC): 0.256 µg/mL
- in vitro antibacterial activity (a range of organisms): good
- effect in treating acute salmonellosis (S.dublin) in calves (S.dublin): ineffective
- serum concentrations of Compound A ([2]; Group 3: Compound A alone at 6 mg/kg daily s.c.): > 0.256 µg/mL

Structure (SMILES): Cc1cc(C)nc(NS(=O)(=O)c2ccc(N)cc2)n1 [SDD, sulphadimidine]
- therapeutic effect ([1]; Group 1: SDD alone 200/100 mg/kg daily): therapeutically ineffective
- clinical recovery of surviving calves ([1]; Group 1: SDD alone 200/100 mg/kg, three surviving calves): very slow clinical recovery
- bodyweight of surviving calves ([1]; Group 1: SDD alone 200/100 mg/kg, three surviving calves, Day 21 versus Day 0): none had regained its Day 0 bodyweight by Day 21
- Mortality ([1]; Group 1: SDD alone, first dose 200 mg/kg, subsequent doses 100 mg/kg daily): 5 out of 8
- Mortality ([1]; Group 2: SDD alone 30 mg/kg daily): 5 out of 8
- growth at 24 hours (S. dublin strain M738; Compound A 0 µg/ml, SDD 1 µg/ml): +
- growth at 24 hours (S. dublin strain M738; Compound A 0 µg/ml, SDD 2 µg/ml): +
- growth at 24 hours (S. dublin strain M738; Compound A 0 µg/ml, SDD 4 µg/ml): +
- growth at 24 hours (S. dublin strain M738; Compound A 0 µg/ml, SDD 8 µg/ml): +
- growth at 24 hours (S. dublin strain M738; Compound A 0 µg/ml, SDD 16 µg/ml): +
- growth at 24 hours (S. dublin strain M738; Compound A 0 µg/ml, SDD 32 µg/ml): +
- growth at 24 hours (S. dublin strain M738; Compound A 0 µg/ml, SDD 64 µg/ml): +
- growth at 24 hours (S. dublin strain M738; Compound A 0 µg/ml, SDD 128 µg/ml): -
- growth at 24 hours (S. dublin strain M738; Compound A 0 µg/ml, SDD 256 µg/ml): -
- MIC (S. dublin strain M738): 128 µg/mL
- serum concentrations of SDD ([2]; Group 1: SDD alone 200/100 mg/kg daily s.c., throughout the dosing period): > 128 µg/mL

Structure (SMILES): COc1cc(Cc2cnc(N)nc2N)cc(OC)c1OC [trimethoprim]
- oral bioavailability [3]: very poor

Reference: EP0238207B1, “Bactericidal mixtures” (PITMAN-MOORE INC., priority 1986, dated 1987)
